Where a name gives a salt, the structure may show the parent alone. Read-outs that look alike come from different tables or passages of the source.
Legend:
Asu-ACR-16 [1] = target: T1, Asu-ACR-16 (Ascaris suum, UniProt F1KYJ9); assay: cell-based; assay type: cell-based
T1 construct: Full-length Asu-acr-16 cDNA was amplified with the forward primer; expressed in transfected cells; host or cells: Xenopus laevis oocytes injected with Asu-acr-16 cRNA plus Asu-ric-3 cRNA
T1 sequence (F1KYJ9 1-504): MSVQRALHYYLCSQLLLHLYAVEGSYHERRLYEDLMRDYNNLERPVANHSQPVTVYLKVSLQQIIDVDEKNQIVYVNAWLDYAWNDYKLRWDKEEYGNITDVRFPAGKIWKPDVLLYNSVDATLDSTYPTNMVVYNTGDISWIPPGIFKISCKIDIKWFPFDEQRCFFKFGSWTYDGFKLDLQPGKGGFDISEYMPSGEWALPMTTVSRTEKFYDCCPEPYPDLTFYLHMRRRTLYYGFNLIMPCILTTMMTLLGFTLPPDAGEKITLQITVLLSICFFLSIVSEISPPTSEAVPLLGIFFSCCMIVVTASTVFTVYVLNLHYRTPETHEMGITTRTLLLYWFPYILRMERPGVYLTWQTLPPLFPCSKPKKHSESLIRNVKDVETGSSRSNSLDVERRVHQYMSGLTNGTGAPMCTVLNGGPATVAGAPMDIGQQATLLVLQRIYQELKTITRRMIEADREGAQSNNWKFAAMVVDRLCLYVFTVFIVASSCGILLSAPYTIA
Procedure: (§1) We used two-electrode voltage-clamp electrophysiology to record the inward current generated by the activated Asu-ACR-16 receptors expressed in X. laevis oocytes. 100 μM BAPTA-AM (final concentration) was added into the oocyte incubation solution 4 h prior to recording, to prevent the current produced by the endogenous calcium-activated chloride channels during recording. An Axoclamp 2B amplifier (Molecular Devices, CA, USA) was used for recording and oocytes were held at −60 mV. A PC computer with software Clampex 9.2 (Molecular Devices, CA, USA) was used to acquire the recording data. The microelectrodes used to measure current in oocytes were pulled on a Flaming/Brown horizontal electrode puller (Model P-97, Sutter Instruments), filled with 3M KCl and had resistances of 20–30 MΩ. The microelectrode tips were broken back carefully with Kimwipes (Wilmington, NC, USA) to reduce the resistance to 2–5 MΩ. […] Oocytes were placed into a tiny groove of the narrow oocyte recording chamber.
(§2) 100 μM acetylcholine was applied initially for 10 s as a control to check the viability of the oocytes and Asu-ACR-16 expression for all the recordings. Recording solution was then used to wash out the drug from the oocytes for 2–3 min before next application of drug perfusion.
(§3) The data from electrophysiological recordings were analyzed using Clampfit 9.2 (Molecular Devices, CA, and USA) and GraphPad Prism 5.0 (Graphpad Software Inc., CA, USA). […] Concentration-response relationships or concentration-inhibition (%) relationships were analyzed by fitting data points into the Hill equation, with at least four replicates of each experiment set.

Asu-ACR-16 [2] = target: T1, Asu-ACR-16; assay: cell-based; assay type: cell-based; details: for Hill slope (nH): inhibitory concentration-response vs 100 μM ach; for Inhibitionmax (maximum inhibition): of currents elicited by 100 μM ach
Procedure: The nanoject II microinjector (Drummond Scientific, PA, USA) was used to injected the cRNA mixture into the animal pole of the de-folliculated X. laevis oocyte (Ecocyte Bioscience, Austin, TX, USA).
as §1, §2, §3

C. elegans strain N2 = assay: C. elegans L4 larvae motility (thrashing) in M9 buffer; assay type: in vivo, Caenorhabditis elegans; details: for Effect on locomotion of worms vs negative control: 100 μM, 0-20 min
Procedure: The wild-type C. elegans strain N2 were obtained from the Caenorhabditis Genetics Center (University of Minnesota, MN, USA). […] We counted the number of worms with normal motility in M9 buffer with diluted drugs from the stock solutions (≤1% DMSO) at 0, 5, 10, 15 and 20 min. Five replicates were applied for each treatment. Motility between negative control (1% DMSO, final concentration) and drug treated worms were compared at each time point using student t-test.

[3] = inhibition of currents elicited by 100 μM ach, oocytes held at −60 mV, mean ± S.E.M., read-out: IC50

SMILES | Hill slope (nH) of ach curve (Asu-ACR-16 [1]; in presence of 3 μM hit) | Hill slope (nH) (Asu-ACR-16 [2]; mean ± S.E.M.) | Inhibitionmax (maximum inhibition) (Asu-ACR-16 [2]; mean ± S.E.M.) | Effect on locomotion of worms vs negative control (C. elegans strain N2; L4 larvae) | IC50 (Asu-ACR-16 [2]; [3]) | also measured
CC(C)(C)[C@]1(O)CCN2C[C@H]3c4ccccc4CCc4cccc(c43)[C@@H]2C1 [(+)-butaclamol Cl, (+)-butaclamol hydrochloride] | 12.75 ± 3.63 | 1.34 ± 0.29 | 79.53 ± 12.41% | – | – | Hill slope (nH) of ach curve (Asu-ACR-16 [1]; in presence of 1 μM hit): 9.64 ± 4.14; IC50 (Asu-ACR-16 [2]): 9.85 ± 2.37 µM
Cl.N#Cc1ccc2c(c1)CCN(CC[C@H]1CC[C@H](NC(=O)c3ccnc4ccccc34)CC1)C2.O [SB-277011-A, SB-277011-A hydrochloride hydrate] | – | – | – | – | – | Time to recovery of normal motility (C. elegans strain N2; L4 larvae, 30 μM): ≤ 20 min; Drop in number of normal worms with thrashing-like movement (C. elegans strain N2; L4 larvae, 30 μM, 5 min, p < 0.01): 60%; Number of worms with motility that appeared normal (C. elegans strain N2; L4 larvae, 30 μM, 10 min, p < 0.05): 50%; Number of worms with motility that appeared normal (C. elegans strain N2; L4 larvae, 30 μM, 15 min, p > 0.05): 85%; Number of worms with motility that appeared normal (C. elegans strain N2; L4 larvae, 30 μM, after 20 min): returned to near negative control values; Effect on motility of adult C. elegans compared with larvae (C. elegans strain N2; adult worms): less effective on adult C. elegans
CC(=O)OCC[N+](C)(C)C [ach, acetylcholine chloride] | – | – | – | – | – | Hill slope (nH) (Asu-ACR-16 [1]; ach alone (control, absence of hits)): 3.05 ± 0.07; Emax (Asu-ACR-16 [1]; read-out: Imax (maximum response)): 97.5 ± 1.19%
O=C(OCC1c2ccccc2-c2ccccc21)N1CCC(C(=O)O)(c2cccc3ccccc23)CC1 [fmoc-1, fmoc-4-(naphthalen-1-yl)-piperidine-4-carboxylic acid] | 1.76 ± 0.21 | 1.97 ± 0.37 | 82.49 ± 4.74% | No visual effects | 10 ± 1.38 µM | –
O=C(OCC1c2ccccc2-c2ccccc21)N1CCC(C(=O)O)(c2ccc3ccccc3c2)CC1 [fmoc-2, fmoc-4-(naphthalen-2-yl)-piperidine-4-carboxylic acid] | 2.54 ± 0.18 | 1.22 ± 0.17 | 80.34 ± 10.32% | No visual effects | 16.7 ± 1.95 µM | –
c1ccc([C@H]2CN3CCSC3=N2)cc1 [levamisole, Levamisole hydrochloride] | – | – | – | – | – | Time without recovery of normal motility (C. elegans strain N2; L4 larvae, 30 μM): > 24 h
